# Laboratory results as given in patent publication US8541418B2, “Inhibitors of polo-like kinase” (Elan Pharmaceutical, Inc., priority 2009, dated 2013).
# Where two headings read alike, the source gives them in different places.
# Legend:
# Assay type in all cases: biochemical
# PLK1 = PLK1 (Homo sapiens, UniProt P53350); assay: PLK TR-FRET peptide assay, PLK1
# PLK3 = PLK3 (Homo sapiens, UniProt Q9H4B4); assay: PLK TR-FRET peptide assay, PLK3
# PLK2 = PLK2 (Homo sapiens, UniProt Q9NYY3); assay: PLK TR-FRET peptide assay, PLK2; conditions: for IC50: PLK TR-FRET peptide assay, read-out: Plk2 IC50
# [1] = GST-PLK3, 15 min reaction, read-out: Plk3 IC50
# Sequence of PLK2 (Q9NYY3 whole entry): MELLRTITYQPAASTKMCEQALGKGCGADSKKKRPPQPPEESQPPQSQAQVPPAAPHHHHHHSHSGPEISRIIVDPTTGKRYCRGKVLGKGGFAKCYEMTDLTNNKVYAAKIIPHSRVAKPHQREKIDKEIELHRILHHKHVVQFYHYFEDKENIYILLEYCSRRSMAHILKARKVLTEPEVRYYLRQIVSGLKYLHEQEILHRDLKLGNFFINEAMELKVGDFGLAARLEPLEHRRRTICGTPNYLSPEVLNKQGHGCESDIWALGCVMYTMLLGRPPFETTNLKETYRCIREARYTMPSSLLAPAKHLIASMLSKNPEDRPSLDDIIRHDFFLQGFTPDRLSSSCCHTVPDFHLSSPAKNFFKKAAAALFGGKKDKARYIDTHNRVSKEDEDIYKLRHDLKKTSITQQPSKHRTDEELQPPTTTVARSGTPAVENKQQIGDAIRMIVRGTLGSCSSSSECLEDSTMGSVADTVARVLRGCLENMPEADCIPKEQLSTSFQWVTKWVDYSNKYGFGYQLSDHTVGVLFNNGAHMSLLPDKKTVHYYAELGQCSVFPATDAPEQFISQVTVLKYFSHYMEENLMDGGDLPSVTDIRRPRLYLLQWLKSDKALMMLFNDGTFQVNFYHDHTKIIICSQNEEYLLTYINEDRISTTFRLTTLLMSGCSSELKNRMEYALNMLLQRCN
# Sequence of PLK1 (P53350 whole entry): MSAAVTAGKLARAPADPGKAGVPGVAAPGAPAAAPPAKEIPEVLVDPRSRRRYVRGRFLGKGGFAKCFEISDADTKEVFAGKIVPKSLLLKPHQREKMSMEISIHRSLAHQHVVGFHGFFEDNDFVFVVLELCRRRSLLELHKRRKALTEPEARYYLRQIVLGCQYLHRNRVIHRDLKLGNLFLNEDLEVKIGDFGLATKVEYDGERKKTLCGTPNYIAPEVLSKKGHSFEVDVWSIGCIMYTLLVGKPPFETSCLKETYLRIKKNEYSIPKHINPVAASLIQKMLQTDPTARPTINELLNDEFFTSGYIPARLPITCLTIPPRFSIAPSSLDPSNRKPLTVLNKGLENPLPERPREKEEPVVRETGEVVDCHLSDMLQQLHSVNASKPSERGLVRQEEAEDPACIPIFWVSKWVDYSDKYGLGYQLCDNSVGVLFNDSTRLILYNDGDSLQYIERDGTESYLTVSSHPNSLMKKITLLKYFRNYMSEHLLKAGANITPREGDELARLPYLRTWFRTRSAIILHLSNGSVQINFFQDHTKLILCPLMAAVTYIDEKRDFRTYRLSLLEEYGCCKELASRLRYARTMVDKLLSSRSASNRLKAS
# Sequence of PLK3 (Q9H4B4 whole entry): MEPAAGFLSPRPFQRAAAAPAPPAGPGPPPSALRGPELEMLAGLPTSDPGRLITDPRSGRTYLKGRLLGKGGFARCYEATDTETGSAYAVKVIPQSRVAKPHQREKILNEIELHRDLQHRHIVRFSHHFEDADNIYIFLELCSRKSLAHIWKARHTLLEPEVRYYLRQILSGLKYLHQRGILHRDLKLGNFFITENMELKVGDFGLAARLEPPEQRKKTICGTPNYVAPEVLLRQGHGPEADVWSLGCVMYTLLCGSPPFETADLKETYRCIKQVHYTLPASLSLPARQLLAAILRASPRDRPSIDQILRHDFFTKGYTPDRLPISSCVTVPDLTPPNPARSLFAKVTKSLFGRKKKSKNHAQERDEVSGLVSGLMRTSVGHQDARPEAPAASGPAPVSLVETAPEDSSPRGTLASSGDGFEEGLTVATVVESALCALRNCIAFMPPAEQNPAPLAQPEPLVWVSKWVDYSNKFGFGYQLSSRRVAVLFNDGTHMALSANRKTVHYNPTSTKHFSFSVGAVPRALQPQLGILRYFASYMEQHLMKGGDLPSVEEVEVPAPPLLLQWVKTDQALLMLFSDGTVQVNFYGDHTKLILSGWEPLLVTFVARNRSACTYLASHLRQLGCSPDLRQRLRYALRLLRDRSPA
SMILES,"IC50 (PLK1; GST-PLK1, 60 min reaction)",IC50 (PLK3; [1]),"IC50 (PLK2; GST-PLK2, 60 min reaction)",relative PLK2 activity of the enantiomers (PLK2; compared with the opposite enantiomer),IC50 (PLK1; GST-PLK1),"IC50 (PLK3; GST-PLK3, read-out: Plk3 IC50)",IC50 (PLK2; GST-PLK2)
"CCC12CCCCCN1c1nc(-n3ncnc3-c3ccccc3)ncc1N(C)C2=O (racemic) [Example 216, (+/−) 6a-ethyl-5-methyl-2-(5-phenyl-1H-1,2,4-triazol-1-yl)-6a,7,8,9,10,11-hexahydroazepino[2,1-h]pteridin-6(5H)-one]",1 to 10 µM,10 to 50 µM,1 to 10 µM,,,,
"CN1C(=O)[C@H](CC(F)(F)F)N(CCC(F)(F)F)c2nc(-n3ccnc3)ncc21 [Example 302, (S)-2-(1H-imidazol-1-yl)-5-methyl-7-(2,2,2-trifluoroethyl)-8-(3,3,3-trifluoropropyl)-7,8-dihydropteridin-6(5H)-one]",> 50 µM,> 50 µM,10 to 50 µM,,,,
"CC[C@@]12CCCCN1c1nc(-n3ccnc3)ncc1N(C)C2=O [Example 286, (S)-6a-ethyl-2-(1H-imidazol-1-yl)-5-methyl-7,8,9,10-tetrahydro-5H-pyrido[2,1-h]pteridin-6(6aH)-one]",> 50 µM,> 50 µM,1 to 10 µM,more active compound,,,
"[2H]C([2H])([2H])N1C(=O)C(C([2H])([2H])C([2H])([2H])[2H])N(C([2H])(C([2H])([2H])[2H])C([2H])([2H])[2H])c2nc(-n3ccnc3-c3nccs3)ncc21 (stereo not shown) [Example 158, 7-perdeuteroethyl-8-perdeuteroisopropyl-5-trideuteromethyl-2-(2-(thiazol-2-yl)-1H-imidazol-1-yl)-7,8-dihydropteridin-6(5H)-one]",1 to 10 µM,10 to 50 µM,< 1 µM,,,,
"CN1C(=O)C2(CC(F)(F)F)CCCN2c2nc(-n3ccnc3-c3ccccc3)ncc21 (stereo not shown) [Example 339, 5-methyl-2-(2-phenyl-1H-imidazol-1-yl)-6a-(2,2,2-trifluoroethyl)-6a,7,8,9-tetrahydropyrrolo[2,1-h]pteridin-6(5H)-one]",10 to 50 µM,10 to 50 µM,< 1 µM,,,,
"CC[C@@H]1C(=O)N(C)c2cnc(-n3ccnc3C3CC3)nc2N1C1CCCC1 [Example 288, (R)-8-cyclopentyl-2-(2-cyclopropyl-1H-imidazol-1-yl)-7-ethyl-5-methyl-7,8-dihydropteridin-6(5H)-one]",1 to 10 µM,1 to 10 µM,< 1 µM,,,,
"CC[C@@H]1C(=O)N(C)c2cnc(-n3ccnc3-c3nccs3)nc2N1C1CCC1 [Example 156, (R)-8-cyclobutyl-7-ethyl-5-methyl-2-(2-(thiazol-2-yl)-1H-imidazol-1-yl)-7,8-dihydropteridin-6(5H)-one]",1 to 10 µM,1 to 10 µM,< 1 µM,,,,
"[2H]C([2H])([2H])N1C(=O)C(C([2H])([2H])C([2H])([2H])[2H])N(C([2H])(C([2H])([2H])[2H])C([2H])([2H])[2H])c2nc(-n3ccnc3-c3cccc(C(F)(F)F)c3)ncc21 (stereo not shown) [Example 172, 7-ethyl-8-isopropyl-5-methyl-2-(2-(3-(trifluoromethyl)phenyl)-1H-imidazol-1-yl)-7,8-dihydropteridin-6(5H)-one]",1 to 10 µM,> 50 µM,< 1 µM,,,,
"CCC12CCCCCN1c1nc(-n3ncnc3-c3cccc4ncccc34)ncc1N(C)C2=O (racemic) [Example 217, (+/−) 6a-ethyl-5-methyl-2-(5-(quinolin-5-yl)-1H-1,2,4-triazol-1-yl)-6a,7,8,9,10,11-hexahydroazepino[2,1-h]pteridin-6(5H)-one]",> 50 µM,> 50 µM,10 to 50 µM,,,,
"CCC12CCCCN1c1nc(-n3ccnc3-c3ccccc3)ncc1N(C)C2=O (racemic) [Example 238, (+/−) 6a-ethyl-5-methyl-2-(2-phenyl-1H-imidazol-1-yl)-7,8,9,10-tetrahydro-5H-pyrido[2,1-h]pteridin-6(6aH)-one]",1 to 10 µM,10 to 50 µM,< 1 µM,,,,
"[2H]C([2H])([2H])N1C(=O)C(C([2H])([2H])C([2H])([2H])[2H])N(C([2H])(C([2H])([2H])[2H])C([2H])([2H])[2H])c2nc(-n3ccnc3-c3ccc(F)c(F)c3)ncc21 (stereo not shown) [Example 169, 2-(2-(3,4-difluorophenyl)-1H-imidazol-1-yl)-7-perdeuteroethyl-8-perdeuteroisopropyl-5-trideuteromethyl-7,8-dihydropteridin-6(5H)-one]",1 to 10 µM,10 to 50 µM,< 1 µM,,,,
"CC[C@@H]1C(=O)N(C)c2cnc(-n3ccnc3Cl)nc2N1C1CCCC1 [Example 292, (R)-2-(2-chloro-1H-imidazol-1-yl)-8-cyclopentyl-7-ethyl-5-methyl-7,8-dihydropteridin-6(5H)-one]",1 to 10 µM,10 to 50 µM,< 1 µM,,,,
"[2H]C([2H])([2H])N1C(=O)C(C([2H])([2H])C([2H])([2H])[2H])N(C([2H])(C([2H])([2H])[2H])C([2H])([2H])[2H])c2nc(-n3ccnc3-c3cc(F)cc(F)c3)ncc21 (racemic) [Example 163, 2-(2-(3,5-difluorophenyl)-1H-imidazol-1-yl)-7-perdeuteroethyl-8-perdeuteroisopropyl-5-trideuteromethyl-7,8-dihydropteridin-6(5H)-one]",< 1 µM,10 to 50 µM,< 1 µM,,,,
"CC[C@@]12CCCN1c1nc(-n3ccnc3-c3ccc(Cl)s3)ncc1N(C)C2=O [Example 218, (S)-2-(2-(5-chlorothiophen-2-yl)-1H-imidazol-1-yl)-6a-ethyl-5-methyl-6a,7,8,9-tetrahydropyrrolo[2,1-h]pteridin-6(5H)-one]",10 to 50 µM,10 to 50 µM,< 1 µM,,,,
"CC[C@@]12CCCN1c1nc(-n3ccnc3-c3cccc(Cl)c3)ncc1N(C)C2=O [Example 236, (S)-2-(2-(3-chlorophenyl)-1H-imidazol-1-yl)-6a-ethyl-5-methyl-6a,7,8,9-tetrahydropyrrolo[2,1-h]pteridin-6(5H)-one]",1 to 10 µM,10 to 50 µM,< 1 µM,,,,

# The next lines start with the values.
"IC50 (PLK1; GST-PLK1, 60 min reaction)",IC50 (PLK3; [1]),"IC50 (PLK2; GST-PLK2, 60 min reaction)",relative PLK2 activity of the enantiomers (PLK2; compared with the opposite enantiomer),IC50 (PLK1; GST-PLK1),"IC50 (PLK3; GST-PLK3, read-out: Plk3 IC50)",IC50 (PLK2; GST-PLK2),SMILES
< 1 µM,1 to 10 µM,< 1 µM,,,,,"CC[C@@H]1C(=O)N(C)c2cnc(-c3cn[nH]c3-c3nccs3)nc2N1C(C)C1CC1 (stereo partly drawn) [Example 357, (7R)-8-(1-cyclopropylethyl)-7-ethyl-5-methyl-2-(5-(thiazol-2-yl)-1H-pyrazol-4-yl)-7,8-dihydropteridin-6(5H)-one]"
< 1 µM,1 to 10 µM,< 1 µM,,,,,"CC[C@@H]1C(=O)N(C)c2cnc(-n3ccnc3-c3ccccc3F)nc2N1C1CCC1 [Example 49, (R)-8-cyclobutyl-7-ethyl-2-(2-(2-fluorophenyl)-1H-imidazol-1-yl)-5-methyl-7,8-dihydropteridin-6(5H)-one]"
1 to 10 µM,> 50 µM,< 1 µM,,,,,"CC[C@@H]1C(=O)N(C)c2cnc(-c3ccncc3NS(C)(=O)=O)nc2N1C1CCCC1 [Example 116, (R)—N-(4-(8-cyclopentyl-7-ethyl-5-methyl-6-oxo-5,6,7,8-tetrahydropteridin-2-yl)pyridin-3-yl)methanesulfonamide]"
,,,,10 to 50 µM,> 50 µM,1 to 10 µM,"CC[C@H]1C(=O)N(C)c2cnc(-c3cn[nH]c3-c3nccs3)nc2N1c1ccc(F)c(F)c1 [Example 393, (S)-8-(3,4-difluorophenyl)-7-ethyl-5-methyl-2-(5-(thiazol-2-yl)-1H-pyrazol-4-yl)-7,8-dihydropteridin-6(5H)-one]"
< 1 µM,< 1 µM,< 1 µM,,,,,"CC[C@@H]1C(=O)N(C)c2cnc(-c3cn[nH]c3-c3ccc(F)cc3F)nc2N1C(C)C [Example 312, (R)-2-(5-(2,4-difluorophenyl)-1H-pyrazol-4-yl)-7-ethyl-8-isopropyl-5-methyl-7,8-dihydropteridin-6(5H)-one]"
< 1 µM,< 1 µM,< 1 µM,,,,,"CC[C@@H]1C(=O)N(C)c2cnc(-c3ccncc3-c3ccccc3)nc2N1C1CCC1 [Example 96, (R)-8-cyclobutyl-7-ethyl-5-methyl-2-(3-phenylpyridin-4-yl)-7,8-dihydropteridin-6(5H)-one]"
10 to 50 µM,> 50 µM,10 to 50 µM,,,,,"CC[C@@H]1C(=O)N(C)c2cnc(-c3ccncc3CNC(=O)c3ccccc3)nc2N1C1CCCC1 [Example 123, (R)—N-((4-(8-cyclopentyl-7-ethyl-5-methyl-6-oxo-5,6,7,8-tetrahydropteridin-2-yl)pyridin-3-yl)methyl)benzamide]"
> 50 µM,> 50 µM,10 to 50 µM,,,,,"CC[C@@H]1C(=O)N(C)c2cnc(-c3ccncc3CNS(C)(=O)=O)nc2N1C(C)C [Example 131, (R)—N-((4-(7-ethyl-8-isopropyl-5-methyl-6-oxo-5,6,7,8-tetrahydropteridin-2-yl)pyridin-3-yl)methyl)methanesulfonamide]"
1 to 10 µM,10 to 50 µM,< 1 µM,,,,,"CC[C@@H]1C(=O)N(C)c2cnc(-c3ccncc3NC(=O)OC)nc2N1C1CCCC1 [Example 114, (R)-methyl 4-(8-cyclopentyl-7-ethyl-5-methyl-6-oxo-5,6,7,8-tetrahydropteridin-2-yl)pyridin-3-ylcarbamate]"
> 50 µM,10 to 50 µM,1 to 10 µM,,,,,"CC[C@H]1C(=O)N(C)c2cnc(-n3ccnc3-c3ccc(F)cc3)nc2N1c1cccc(C#N)c1 [Example 359, (S)-3-(7-ethyl-2-(2-(4-fluorophenyl)-1H-imidazol-1-yl)-5-methyl-6-oxo-6,7-dihydropteridin-8(5H)-yl)benzonitrile]"
1 to 10 µM,1 to 10 µM,< 1 µM,,,,,"CCC1C(=O)N(C)c2cnc(-n3ccnc3-c3ccc(F)cc3)nc2N1c1cccc(-c2cncnc2)c1 (stereo not shown) [Example 346, 7-ethyl-2-(2-(4-fluorophenyl)-1H-imidazol-1-yl)-5-methyl-8-(3-(pyrimidin-5-yl)phenyl)-7,8-dihydropteridin-6(5H)-one]"
